Measurements published in paper PMC10382584, “Macrocyclization of linear molecules by deep learning to facilitate macrocyclic drug candidates discovery” (Nature Communications, 2023).

What was measured:
Assay in all cases: biochemical
Set-up in all cases: DiscoveRx KINOMEscan competition binding, percent of DMSO control signal at 100 nM
Details in all cases: read-out: Fig. 4a / Percent Control / Compound 1; percent of DMSO control, competition binding
EPHB4 = EPHB4 (Homo sapiens, UniProt P54760)
MAPKAPK5 = MAPKAPK5 (Homo sapiens, UniProt Q8IW41)
ERK3 = molecular target: T1, ERK3 (Homo sapiens, UniProt Q16659)
T1 construct: gene MAPK6

CAMK1 = CAMK1 (Homo sapiens, UniProt Q14012)
[1] = molecular target: T2, RSK1(Kin.Dom.2-C-terminal) (Homo sapiens, UniProt Q15418)
T2 construct: gene RPS6KA1; Kin.Dom.2-C-terminal

HIPK1 = HIPK1 (Homo sapiens, UniProt Q86Z02)
TAOK1 = TAOK1 (Homo sapiens, UniProt Q7L7X3)
LYN = LYN (Homo sapiens, UniProt P07948)
BMPR2 = BMPR2 (Homo sapiens, UniProt Q13873)
PKAC-alpha = molecular target: T3, PKAC-alpha (Homo sapiens, UniProt P17612)
T3 construct: gene PRKACA

ULK2 = ULK2 (Homo sapiens, UniProt Q8IYT8)
CDKL1 = CDKL1 (Homo sapiens, UniProt Q00532)
ABL1-nonphosphorylated = molecular target: T4, ABL1-nonphosphorylated (Homo sapiens, UniProt P00519)
T4 construct: nonphosphorylated

PIK3CA(Q546K) = PIK3CA(Q546K) (Homo sapiens, UniProt P42336, Q546K)
HIPK4 = HIPK4 (Homo sapiens, UniProt Q8NE63)
AURKA = AURKA (Homo sapiens, UniProt O14965)
INSRR = INSRR (Homo sapiens, UniProt P14616)
SIK2 = SIK2 (Homo sapiens, UniProt Q9H0K1)
CSNK2A1 = CSNK2A1 (Homo sapiens, UniProt P68400)
DCAMKL1 = molecular target: T5, DCAMKL1 (Homo sapiens, UniProt O15075)
T5 construct: gene DCLK1

WNK2 = WNK2 (Homo sapiens, UniProt Q9Y3S1)
NDR1 = molecular target: T6, NDR1 (Homo sapiens, UniProt Q15208)
T6 construct: gene STK38

PIK4CB = molecular target: T7, PIK4CB (Homo sapiens, UniProt Q9UBF8)
T7 construct: gene PI4KB

[2] = molecular target: T8, RPS6KA4(Kin.Dom.1-N-terminal) (Homo sapiens, UniProt O75676)
T8 construct: Kin.Dom.1-N-terminal

TIE1 = TIE1 (Homo sapiens, UniProt P35590)
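Also: KINOMEscan kinase panel binding assay, signal normalized between DMSO as 100% and a positive control compound as 0%.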

Chain of MAPKAPK5 (Q8IW41 whole entry): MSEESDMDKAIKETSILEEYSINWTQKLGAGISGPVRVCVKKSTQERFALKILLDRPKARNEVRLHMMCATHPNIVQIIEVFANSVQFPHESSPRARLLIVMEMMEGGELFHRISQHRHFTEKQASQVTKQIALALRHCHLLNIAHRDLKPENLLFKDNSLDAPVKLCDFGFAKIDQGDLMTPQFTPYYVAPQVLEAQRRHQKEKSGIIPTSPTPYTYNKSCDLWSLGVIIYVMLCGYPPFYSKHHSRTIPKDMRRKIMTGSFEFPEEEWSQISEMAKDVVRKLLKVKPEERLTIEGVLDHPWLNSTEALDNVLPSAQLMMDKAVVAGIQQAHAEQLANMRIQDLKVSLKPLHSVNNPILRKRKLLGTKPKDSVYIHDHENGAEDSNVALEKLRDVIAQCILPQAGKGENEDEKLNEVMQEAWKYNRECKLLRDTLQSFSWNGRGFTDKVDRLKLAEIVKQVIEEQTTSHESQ
Chain of PIK3CA(Q546K) (P42336 whole entry Q546K): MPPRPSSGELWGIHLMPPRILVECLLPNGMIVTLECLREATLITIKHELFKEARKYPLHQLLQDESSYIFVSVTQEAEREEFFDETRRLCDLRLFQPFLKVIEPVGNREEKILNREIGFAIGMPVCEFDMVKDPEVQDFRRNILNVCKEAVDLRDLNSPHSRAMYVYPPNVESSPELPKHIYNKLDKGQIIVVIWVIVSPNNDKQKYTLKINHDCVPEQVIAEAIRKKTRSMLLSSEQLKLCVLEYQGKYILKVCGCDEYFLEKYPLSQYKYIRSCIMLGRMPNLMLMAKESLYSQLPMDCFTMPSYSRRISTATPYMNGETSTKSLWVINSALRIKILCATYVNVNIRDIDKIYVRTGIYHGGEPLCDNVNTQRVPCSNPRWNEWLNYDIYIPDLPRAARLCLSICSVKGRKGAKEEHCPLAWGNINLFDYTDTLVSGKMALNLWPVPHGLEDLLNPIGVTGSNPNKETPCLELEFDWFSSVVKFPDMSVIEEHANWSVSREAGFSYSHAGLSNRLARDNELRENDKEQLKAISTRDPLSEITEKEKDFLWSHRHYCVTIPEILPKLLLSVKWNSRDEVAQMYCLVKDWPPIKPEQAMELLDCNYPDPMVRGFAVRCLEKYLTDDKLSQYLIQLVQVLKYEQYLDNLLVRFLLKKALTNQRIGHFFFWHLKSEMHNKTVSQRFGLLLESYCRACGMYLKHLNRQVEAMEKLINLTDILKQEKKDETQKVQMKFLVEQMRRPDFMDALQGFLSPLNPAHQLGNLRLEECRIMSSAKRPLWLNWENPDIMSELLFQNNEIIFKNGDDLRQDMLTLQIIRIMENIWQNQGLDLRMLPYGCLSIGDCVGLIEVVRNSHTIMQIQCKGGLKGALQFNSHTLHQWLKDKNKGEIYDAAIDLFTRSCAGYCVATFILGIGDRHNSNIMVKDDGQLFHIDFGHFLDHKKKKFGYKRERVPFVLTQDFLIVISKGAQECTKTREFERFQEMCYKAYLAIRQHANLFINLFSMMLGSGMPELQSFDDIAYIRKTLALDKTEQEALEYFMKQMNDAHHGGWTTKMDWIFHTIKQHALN
Chain of HIPK1 (Q86Z02 whole entry): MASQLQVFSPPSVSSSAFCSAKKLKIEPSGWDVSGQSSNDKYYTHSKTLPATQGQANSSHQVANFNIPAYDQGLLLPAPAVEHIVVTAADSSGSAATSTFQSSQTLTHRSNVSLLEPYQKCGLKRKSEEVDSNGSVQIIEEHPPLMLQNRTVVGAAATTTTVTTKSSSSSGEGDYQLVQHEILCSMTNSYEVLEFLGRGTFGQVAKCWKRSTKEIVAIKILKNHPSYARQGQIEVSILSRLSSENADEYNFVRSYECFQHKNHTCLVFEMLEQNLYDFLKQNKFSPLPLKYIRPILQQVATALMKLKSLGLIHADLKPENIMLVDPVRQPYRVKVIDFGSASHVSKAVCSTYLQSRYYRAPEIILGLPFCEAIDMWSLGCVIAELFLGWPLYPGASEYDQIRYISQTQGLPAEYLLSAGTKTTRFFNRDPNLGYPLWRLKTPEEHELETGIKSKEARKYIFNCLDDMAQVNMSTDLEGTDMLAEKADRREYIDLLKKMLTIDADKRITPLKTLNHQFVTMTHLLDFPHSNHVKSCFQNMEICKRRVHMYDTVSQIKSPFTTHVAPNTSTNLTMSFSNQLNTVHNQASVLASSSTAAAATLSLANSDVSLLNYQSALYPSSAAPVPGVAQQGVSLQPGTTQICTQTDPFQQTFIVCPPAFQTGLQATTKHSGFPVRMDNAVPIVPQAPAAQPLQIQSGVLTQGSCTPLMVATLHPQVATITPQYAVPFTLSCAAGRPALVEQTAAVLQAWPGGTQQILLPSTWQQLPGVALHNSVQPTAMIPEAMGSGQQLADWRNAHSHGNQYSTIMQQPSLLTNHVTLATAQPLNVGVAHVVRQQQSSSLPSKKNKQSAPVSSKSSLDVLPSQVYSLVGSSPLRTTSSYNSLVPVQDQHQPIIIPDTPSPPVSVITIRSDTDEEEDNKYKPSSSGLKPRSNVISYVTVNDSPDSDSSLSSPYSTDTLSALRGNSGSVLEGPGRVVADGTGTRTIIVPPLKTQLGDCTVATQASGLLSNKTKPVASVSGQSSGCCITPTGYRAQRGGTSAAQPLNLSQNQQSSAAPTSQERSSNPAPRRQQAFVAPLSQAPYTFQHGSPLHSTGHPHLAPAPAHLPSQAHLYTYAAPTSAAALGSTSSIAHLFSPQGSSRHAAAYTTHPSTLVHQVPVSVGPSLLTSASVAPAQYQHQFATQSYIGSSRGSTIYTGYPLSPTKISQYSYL
Chain of INSRR (P14616 whole entry): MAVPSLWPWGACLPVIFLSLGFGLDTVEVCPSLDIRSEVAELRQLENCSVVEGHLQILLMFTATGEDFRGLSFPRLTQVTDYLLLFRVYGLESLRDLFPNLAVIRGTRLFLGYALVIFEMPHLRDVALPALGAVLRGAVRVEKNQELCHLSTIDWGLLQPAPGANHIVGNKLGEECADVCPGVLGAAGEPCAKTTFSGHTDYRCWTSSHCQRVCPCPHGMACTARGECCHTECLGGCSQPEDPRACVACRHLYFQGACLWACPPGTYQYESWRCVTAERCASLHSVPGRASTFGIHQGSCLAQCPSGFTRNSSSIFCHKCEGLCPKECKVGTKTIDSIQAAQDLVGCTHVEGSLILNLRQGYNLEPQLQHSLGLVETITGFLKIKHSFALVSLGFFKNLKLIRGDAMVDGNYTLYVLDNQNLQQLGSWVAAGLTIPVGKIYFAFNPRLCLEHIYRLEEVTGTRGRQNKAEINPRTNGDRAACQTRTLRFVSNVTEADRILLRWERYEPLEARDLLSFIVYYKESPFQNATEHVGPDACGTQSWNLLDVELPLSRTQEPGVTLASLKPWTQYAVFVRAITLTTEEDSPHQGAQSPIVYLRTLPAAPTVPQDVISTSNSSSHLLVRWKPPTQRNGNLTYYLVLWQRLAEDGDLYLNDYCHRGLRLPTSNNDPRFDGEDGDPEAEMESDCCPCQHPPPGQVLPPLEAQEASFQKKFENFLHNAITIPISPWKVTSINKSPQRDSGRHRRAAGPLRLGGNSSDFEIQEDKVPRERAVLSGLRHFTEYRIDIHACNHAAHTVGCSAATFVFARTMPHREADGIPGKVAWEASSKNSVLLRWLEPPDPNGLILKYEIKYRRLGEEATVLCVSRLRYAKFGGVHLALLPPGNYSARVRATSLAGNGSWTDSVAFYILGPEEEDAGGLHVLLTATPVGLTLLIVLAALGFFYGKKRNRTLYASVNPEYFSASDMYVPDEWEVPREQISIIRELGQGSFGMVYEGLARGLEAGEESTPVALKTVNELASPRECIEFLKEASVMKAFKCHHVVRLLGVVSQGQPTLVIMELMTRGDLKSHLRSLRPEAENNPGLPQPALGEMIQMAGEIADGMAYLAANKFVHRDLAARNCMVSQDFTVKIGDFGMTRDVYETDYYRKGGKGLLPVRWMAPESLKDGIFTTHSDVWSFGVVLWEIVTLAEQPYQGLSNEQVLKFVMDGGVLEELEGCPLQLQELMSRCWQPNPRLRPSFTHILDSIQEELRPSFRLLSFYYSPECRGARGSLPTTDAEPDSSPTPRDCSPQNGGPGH
Chain of CSNK2A1 (P68400 whole entry): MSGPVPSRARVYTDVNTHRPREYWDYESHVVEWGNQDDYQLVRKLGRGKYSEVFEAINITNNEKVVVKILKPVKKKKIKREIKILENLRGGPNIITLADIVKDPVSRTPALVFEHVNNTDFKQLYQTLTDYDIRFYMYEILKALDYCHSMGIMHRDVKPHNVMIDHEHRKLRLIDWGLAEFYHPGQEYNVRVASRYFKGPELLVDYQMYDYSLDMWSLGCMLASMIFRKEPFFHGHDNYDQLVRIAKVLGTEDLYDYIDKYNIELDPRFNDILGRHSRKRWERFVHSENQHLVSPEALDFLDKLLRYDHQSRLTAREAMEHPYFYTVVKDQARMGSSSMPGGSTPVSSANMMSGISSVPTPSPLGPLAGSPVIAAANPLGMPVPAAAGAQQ
Chain of AURKA (O14965 whole entry): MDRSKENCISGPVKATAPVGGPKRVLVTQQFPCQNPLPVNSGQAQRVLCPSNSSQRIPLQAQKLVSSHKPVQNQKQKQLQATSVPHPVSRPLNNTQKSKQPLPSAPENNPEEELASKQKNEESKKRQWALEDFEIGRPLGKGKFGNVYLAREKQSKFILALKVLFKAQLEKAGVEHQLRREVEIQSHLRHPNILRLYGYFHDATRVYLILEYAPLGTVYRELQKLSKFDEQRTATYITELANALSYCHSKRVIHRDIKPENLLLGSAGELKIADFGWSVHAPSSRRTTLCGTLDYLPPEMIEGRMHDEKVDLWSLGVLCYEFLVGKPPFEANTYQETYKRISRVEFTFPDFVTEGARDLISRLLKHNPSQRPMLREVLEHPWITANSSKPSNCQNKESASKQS

Cc1cnc2nc1Nc1cccc(c1)COCc1cc(ccc1OCCN1CCCC1)N2 [Compound 1]
remaining binding at 0.1 µM (EPHB4): 100%
remaining binding at 0.1 µM (MAPKAPK5): 69%
remaining binding at 0.1 µM (ERK3): 82%
remaining binding at 0.1 µM (CAMK1): 92%
remaining binding at 0.1 µM [1]: 98%
remaining binding at 0.1 µM (HIPK1): 66%
remaining binding at 0.1 µM (TAOK1): 72%
remaining binding at 0.1 µM (LYN): 92%
remaining binding at 0.1 µM (BMPR2): 87%
remaining binding at 0.1 µM (PKAC-alpha): 99%
remaining binding at 0.1 µM (ULK2): 83%
remaining binding at 0.1 µM (CDKL1): 86%
remaining binding at 0.1 µM (ABL1-nonphosphorylated): 55%
remaining binding at 0.1 µM (PIK3CA(Q546K)): 70%
remaining binding at 0.1 µM (HIPK4): 79%
remaining binding at 0.1 µM (AURKA): 38%
remaining binding at 0.1 µM (INSRR): 89%
remaining binding at 0.1 µM (SIK2): 94%
remaining binding at 0.1 µM (CSNK2A1): 57%
remaining binding at 0.1 µM (DCAMKL1): 90%
remaining binding at 0.1 µM (WNK2): 100%
remaining binding at 0.1 µM (NDR1): 87%
remaining binding at 0.1 µM (PIK4CB): 79%
remaining binding at 0.1 µM [2]: 100%
remaining binding at 0.1 µM (TIE1): 94%
